Measurements from patent US8871232B2, “Self-indicating wipe for removing bacteria from a surface” (Kimberly-Clark Worldwide, Inc., priority 2007, dated 2014).

Experiments:
live culture yogurt = assay: Colour change of Reichardt's dye lines on paper towel after wiping a contaminated cutting board; settings: VIVA paper towels sprayed with saturated Reichardt's dye in isopropanol with potassium hydroxide; cutting board with light smears of live culture yogurt
Description: Sheets of VIVA® paper towels (Kimberly-Clark Corporation, Neenah Wis.) were placed on a flat surface, three sheets wide. A stainless steel grilling grate (Weber Company, purchased from Home Depot store) was placed onto top of the sheets. Next a 100-milliliter saturated solution of Reichardt's dye in isopropanol with 10 milliliters of potassium hydroxide was placed into a container and then sprayed (Chromist sprayer) over the grilling grate with the VIVA® towels underneath. The grilling grate was removed and the towels were hung in a fumehood and allowed to dry. The paper towels now had multiple parallel lines of the Reichardt's dye across the paper towel. The lines were 4 centimeters apart. Onto a cutting board surface (plastic cutting boards, Kroger grocery store) was applied light smears (3 cm×15 cm) of live culture yogurt. Next, the treated VIVA® paper towels were used to wipe the surface of the cutting board.

S. aureus = assay: Wipe test: removal of S. aureus from ceramic tile and transfer to clean tile, visualised with indicator spray; settings: WTCL wipe treated with aluminum chlorohydrate (1% W/W, add-on approx. 6 to 7%) and 1% Reichardt's dye dots; 100 microliter drops of 10^7 CFU/ml S. aureus on ceramic tile; control wipe's "X" readily visible
Protocol: A wire-textured coform laminate (WTCL) was treated with aluminum chlorohydrate (1% W/W) using a dip and nip procedure, with a resulting add-on of approximately 6 to 7%. The treated WTCL was then treated with a 1% solution of Reichardt's dye indicator (prepared in acetonitrile) in a small dot pattern using a syringe. Control WTCL wipe material without aluminum chlorohydrate was also used for this experiment as a control. Two 100 microliter drops of 10^7 CFU/ml S. aureus were placed onto a ceramic tile. Treated wipe and control material were both used to wipe the drop off of the tile. These wipes were then used to make an “X” onto clean tiles. These tiles were then sprayed with bacterial indicator solution (80 mg/10 mL acetonitrile) using a Chromist® spray can. The treated WTCL was then also sprayed with the indicator. Finally, the treated wipe (now clearly visible) containing the bacteria was once again used to wipe a clean area of tile. This area was then sprayed with the indicator. The “X” for the control was readily visible.

Molecule	color of the Reichardt's dye lines on contact with contaminated surface (live culture yogurt)	transfer of bacteria from used wipe to clean tile (S. aureus)
[O-]c1c(-c2ccccc2)cc(-[n+]2c(-c3ccccc3)cc(-c3ccccc3)cc2-c2ccccc2)cc1-c1ccccc1 [Reichardt's dye, 4-(2,4,6-triphenylpyridinium-1-yl)-2,6-diphenylphenolate]	rapidly discharged	
aluminum chlorohydrate		did not transfer bacteria to the clean tile
